Data: patent US20110152362A1, “METHODS OF TREATING EPILEPTOGENESIS AND EPILEPSY” (priority 2004, published 2011)

Assays:
[1] = Example 3 study 1: single oral dose pharmacokinetics in healthy men; format: in vivo, human
Experimental: Two single-center, placebo-controlled, double-blind, ascending-dose studies were conducted in healthy men ≧18 and ≦45 yrs. In study 1 (N=70), subjects were randomly assigned to a single dose of Test Compound (TC) or placebo. Escalated doses were received as 100, 250, 400, 750, 1000, 1250, and 1500 mg. PK parameters were estimated from plasma and urine samples collected up to 3 days post dose. Study 2 (N=53) evaluated the PK of repeated doses of Test Compound (TC) in 4 dose groups (100, 250, 500, or 750 mg). Within each group, 12 subjects were assigned to q12h treatment with drug or placebo for 1 wk and were crossed over after a 14-day washout period. PK parameters were estimated from plasma and urine samples on days 1 and 7.

[2] = Blood levels in humans, oral administration of Test Compound for 7 days (toxicology studies); format: in vivo, human; settings: for Cmax at 7 days: blood; for Cmax at 7 days / AUC (0-24): human
Description: In toxicology studies in humans, oral administration of Test Compound at various doses for 7 days produced the following C max's and AUC (0-24): […]

[3] = test system: rats subjected to Li-pilo induced SE; test: Example 1: Timm staining, mossy fiber sprouting in hippocampus; format: in vivo, rat; settings: for Timm score: 60 mg/kg
Experimental: At 2 months after the onset of spontaneous recurrent seizures, mossy fiber sprouting was examined on rats in the chronic period exposed to the test compound or DZP and in 3 saline-saline rats. Animals were deeply anaesthetized and perfused transcardially with saline followed by 100 ml of 1.15% (w/v) Na2S in 0.1 M phosphate buffer, and 100 ml of 4% (v/v) formaldehyde in 0.1 M phosphate buffer. Brains were removed from skull, post-fixed in 4% formaldehyde during 3-5 h and 40 μm sections were cut on a sliding vibratome and mounted on gelatin-coated slides.
The following day, sections were developed in the dark in a 26° C. solution of 50% (w/v) arabic gum (160 ml), sodium citrate buffer (30 ml), 5.7% (w/v) hydroquinone (80 ml) and 10% (w/v) silver nitrate (2.5 ml) during 40-45 min. The sections were then rinsed with tap water at 40° C. during at least 45 min, rinsed rapidly with distilled water and allowed to dry. They were dehydrated in ethanol and coverslipped.
Mossy fiber sprouting was evaluated according to criteria previously described in dorsal hippocampus (Cavazos et al., 1991, J Neurosci 11:2795-2803.), which are follows: 0—no granules between the tips and crest of the DG; 1—sparse granules in the supragranular region in a patchy distribution between the tips and crest of DG; 2—more numerous granules in a continuous distribution between the tips and crest of DG; 3—prominent granules in a continuous pattern between tips and crest, with occasional patches of confluent granules between tips and crest; 4—prominent granules that form a confluent dense laminar band between tips and crest and 5—confluent dense laminar band of granules that extends into the inner molecular layer.

[4] = test system: rats subjected to Li-pilo induced SE; test: Example 1: mortality induced by lithium-pilocarpine status epilepticus; format: in vivo, rat
Experimental: (§1) The bilateral EEG cortical activity was recorded during the whole duration of SE and behavioral changes were noted.
(§2) The effects of increasing doses of the Test Compound were studied on 3 groups of rats. The animals of the first group received 10 mg/kg of the test compound, i.p., 1 h after the onset of SE (pilo-TC10) while the animals of groups 2 and 3 received 30 and 60 mg/kg of the Test Compound (pilo-TC30 and pilo-TC60), respectively.
(§3) The control group received saline instead of pilocarpine and the Test Compound (saline-saline). […] Pilo-DZP received a second injection of 1 mg/kg DZP on the day of SE at about 10 h after the first one. Thereafter, Pilo-DZP and saline-saline rats received twice daily an equivalent volume of saline.

[5] = test system: rats subjected to li-pilo SE; test: Example 2: latency to and frequency of spontaneous seizures (video recording); format: in vivo, rat
Experimental: The effects of DZP and the 4 doses of TC on epileptogenesis were investigated by daily video recording of the animals for 10 h per day. Video recording was performed for 4 weeks during which the occurrence of the first seizure was noted as well as the total number of seizures over the whole period. Animals were then taken off the video recording system and kept for 4 additional weeks in our animal facilities before they were sacrificed after a total period of 8 weeks of epilepsy.

seizures in rats = test: ED50 for preventing seizures in rats; format: in vivo; settings: Rattus norvegicus, depending on the time and experiment type
[6] = test system: rats subjected to Li-pilo induced SE; test: Example 1: latency to and frequency of spontaneous recurrent seizures (SRS), lithium-pilocarpine model; format: in vivo, rat
Experimental: as §1, §2, §3
The effects of the test compound on the EEG and on the latency to occurrence of SRS were investigated by daily video recording of the animals for 10 h per day and the recording of the electrographic activity twice a week for 8 h.
To calculate the frequency of SRS in pilocarpine-exposed rats, the seizure severity and distinguished stage III (clonic seizures of facial muscles and anterior limbs) and stage IV-V seizures (rearing and falling) was measured. The frequency of stage III SRS per week in pilo-DZP and pilo-test compound rats was variable amongst the groups. It was low, constant in the pilo-DZP and pilo-TC60 (with early SRS onset) groups during the first 3 weeks and had disappeared during the 4th week in the pilo-DZP group. […] The frequency of more severe stage IV-V SRS was highest during the first week in most groups, except pilo-TC30 and TC60 with late seizure onset where the SRS frequency was constant over the whole 4 weeks in TC30 group and over the first two weeks in the pilo-TC60 group with late SRS onset in which no stage IV-V seizures where no seizures recorded after the second week.

NC(=O)OC[C@@H](O)c1ccccc1Cl [TC]
Tmax ([1]; male, human, plasma, single oral dose 100-1500 mg, healthy men): 1.3 to 2.7 h
half-life ([1]; male, human, plasma, single oral dose 100-1500 mg, healthy men, read-out: Mean t1/2): 11.5 to 13.9 h
Cmax and AUC0-∞ dose dependence ([1]; single dose over the range of 100-1500 mg): increased in proportion to dose
Mean CL/F ([1]; single oral dose 100-1500 mg, healthy men): 2.87 to 3.67 L/h
absorption following oral administration ([1]; single oral dose, healthy men): rapidly absorbed
tolerability in humans ([2]; 750 mg twice a day (1500 mg/day)): easily tolerated
Cmax at 7 days ([2]; oral 100 mg b.i.d. for 7 days): 3600 ng/mL
Cmax at 7 days ([2]; oral 250 mg b.i.d. for 7 days): 8200 ng/mL
Cmax at 7 days ([2]; oral 500 mg b.i.d. for 7 days): 17200 ng/mL
Cmax at 7 days ([2]; oral 750 mg b.i.d. for 7 days): 28200 ng/mL
AUC (0-24) ([2]; oral 100 mg b.i.d. for 7 days): 42.2 micrograms-hour/mL
AUC (0-24) ([2]; oral 250 mg b.i.d. for 7 days): 102.3 micrograms-hour/mL
AUC (0-24) ([2]; oral 500 mg b.i.d. for 7 days): 204.1 micrograms-hour/mL
AUC (0-24) ([2]; oral 750 mg b.i.d. for 7 days): 322.7 micrograms-hour/mL
Timm score ([3]; subgroup with early SRS occurrence): 1.8±0.6
Timm score ([3]; subgroup with late occurrence or absence of SRS): 1.2±0.6
Timm score in the upper blade of the dentate gyrus, mean ([3]; pilo-TC10 rats): 1.5±0.6
Timm score in the upper blade of the dentate gyrus, mean ([3]; pilo-TC30 rats): 2.6±1.0
Timm score in the upper blade of the dentate gyrus, mean ([3]; whole group of pilo-TC60 rats): 1.5±0.7
mortality during the first 48 h after SE ([4]; pilo-TC10, 10 mg/kg i.p.): 26%
mortality during the first 48 h after SE ([4]; pilo-TC30, 30 mg/kg i.p.): 20%
mortality during the first 48 h after SE ([4]; pilo-TC60, 60 mg/kg i.p.): 4%
effect on the latency to the first spontaneous seizure ([5]; 30 mg/kg): did not affect the latency to the first spontaneous seizure
latency of long latency subgroup relative to short latency ([5]; 3 higher doses (60, 90, 120 mg/kg)): 4-6 times longer
frequency of spontaneous seizures over four weeks of recording ([5]; TC60, 90 and 120 groups vs DZP and TC30 groups): lower
percentage of rats with short latencies to seizures ([5]; at 30 mg/kg (so in the source), short latency = shorter than 40 days after SE): 70%
percentage of rats with short latencies to seizures ([5]; at 90 mg/kg): 36%
percentage of rats with short latencies to seizures ([5]; at 120 mg/kg): 11%
percentage of non-epileptic rats (no seizure over 150 days post-SE) ([5]; at both highest doses, 90 and 120 mg/kg): 45%
Latency to the first spontaneous seizure ([5]; pilo-TC30, 30 mg/kg): 11.6 ± 2.5 days
Latency to the first spontaneous seizure ([5]; pilo-TC60, Long latency subgroup): 76.7 ± 15.6**°° days
Latency to the first spontaneous seizure ([5]; pilo-TC60, Short latency subgroup): 17.4 ± 5.4 days
Latency to the first spontaneous seizure ([5]; pilo-TC90, Long latency subgroup): 52.0 ± 1.0*° days
Latency to the first spontaneous seizure ([5]; pilo-TC90, Non epileptic subgroup (no seizure over 150 days post-SE)): 150**°° days
Latency to the first spontaneous seizure ([5]; pilo-TC90, Short latency subgroup): 14.8 ± 5.7 days
Latency to the first spontaneous seizure ([5]; pilo-TC120, Long latency subgroup): 84.5 ± 16.7**°° days
Latency to the first spontaneous seizure ([5]; pilo-TC120, Non epileptic subgroup (no seizure over 150 days post-SE)): 150**°° days
Latency to the first spontaneous seizure ([5]; pilo-TC120, Short latency subgroup): 13.0 days
ED50 (seizures in rats): 4 to 30 mg/kg
rats in which occurrence of spontaneous seizures was delayed ([6]; TC 60 mg/kg (4 out of 11)): 36%
mean delay to epilepsy in subgroup vs other groups of animals ([6]; TC 60 mg/kg, subgroup): about 9 fold longer
latency to SRS ([6]; TC60, subgroup with latency similar to other groups (n=7)): 17.6 ± 8.7 days
latency to SRS, mean ([6]; TC60, subgroup with much longer delay (n=4)): 149.8 ± 36.0 days
frequency of stage IV-V SRS ([6]; first week, TC10, TC30 and TC60 (with early SRS onset) groups): 2.3-6.1 SRS per week
frequency of stage III SRS ([6]; pilo-TC10 group, weeks 3 and 4): significantly increased over pilo-DZP values
latency to SRS ([6]; pilo-TC10 rats): 15.4 ± 5.1 days
latency to SRS ([6]; pilo-TC30 rats): 18.9 ± 9.0 days
frequency of stage IV-V SRS ([6]; weeks 2-4, pilo-TC60 group with early SRS onset): 0.6-0.9 seizure per week
